Test results taken from ChEMBL document CHEMBL1201862, “PubChem BioAssay data set” (2004).
The source made the active and inactive calls.

Assays:
[1] = Jurkat T cell cytotoxicity, dose response, cytotoxicity control for P. falciparum gametocyte viability project, luminescence (AID 1117277); type: functional, cell-based;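 also: potency reflects loss of cellular ATP meaning fewer viable cells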
[2] = P. falciparum late gametocyte killing, dose response, luminescence (AID 1117278); type: functional, cell-based;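 also: gametocytes exposed to compound for 24 hours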
[3] = system: Vero; experiment: host cell cytotoxicity of antiviral hits, dose response, cytotoxicity control for West Nile virus antiviral project, secondary assay (AID 1650); type: functional; conditions: Chlorocebus sabaeus
[4] = LGR2 antagonists, dose response, cell-based, HEK293, CRE-luciferase reporter, cherry pick, set 2 (AID 743343); type: functional;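 also: transfected cells were stimulated with diluted bursicon conditioned medium after compound addition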
[5] = MC4R antagonists, dose response, counter-screen for LGR2 antagonist project, cell-based, plate reader, cherry pick (AID 743444); type: functional;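 also: transfected HEK 293 cells stimulated with alpha-MSH peptide; potency of inhibitors of the alpha-MSH evoked signal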
[6] = HepG2 cell cytotoxicity, dose response, cytotoxicity control, plate reader, cherry-pick, antagonist series (AID 743416); type: functional, cell-based
[7] = Luminescence Cell-Based Dose Response HTS to Identify Inhibitors of 5'UTR Stem-Loop Driven Prion Protein mRNA Translation in H4 Neuroglioblastoma Cells. [Related pubchem assays: 1827 (Project Summary), 1813 (Primary HTS)]; type: functional
[8] = inhibitors of firefly luciferase expression or activity, dose response, H4 neuroglioma cells, luminescence (AID 1990); type: functional, cell-based
[9] = molecular target: T1, Protein skinhead-1 (Caenorhabditis elegans, UniProt P34707); type: functional
T1 sequence (P34707 whole entry): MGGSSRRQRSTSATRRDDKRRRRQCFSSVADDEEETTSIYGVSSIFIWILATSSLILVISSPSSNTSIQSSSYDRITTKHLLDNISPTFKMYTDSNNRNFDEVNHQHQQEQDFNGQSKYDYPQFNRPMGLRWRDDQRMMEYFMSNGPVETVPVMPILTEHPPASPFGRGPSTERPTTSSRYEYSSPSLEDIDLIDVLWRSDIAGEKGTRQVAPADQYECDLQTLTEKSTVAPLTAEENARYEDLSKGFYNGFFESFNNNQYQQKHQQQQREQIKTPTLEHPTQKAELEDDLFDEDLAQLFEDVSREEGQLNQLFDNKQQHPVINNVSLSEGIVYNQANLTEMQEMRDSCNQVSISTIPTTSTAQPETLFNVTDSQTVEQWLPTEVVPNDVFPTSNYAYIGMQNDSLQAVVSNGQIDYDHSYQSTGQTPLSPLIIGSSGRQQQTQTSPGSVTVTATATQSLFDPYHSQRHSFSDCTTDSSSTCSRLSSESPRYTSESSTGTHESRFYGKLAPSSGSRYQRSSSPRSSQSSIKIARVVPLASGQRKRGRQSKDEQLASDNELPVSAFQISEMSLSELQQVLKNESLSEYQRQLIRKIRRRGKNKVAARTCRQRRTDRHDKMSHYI

[10] = inhibitors of SNCA 5'UTR-driven reporter translation, confirmation, H4 neuroglioma cells, luminescence (AID 1988); type: functional, cell-based
[11] = HEK293 cell cytotoxicity, dose response, cytotoxicity control, plate reader, cherry-picked samples (AID 743446); type: functional, cell-based
[12] = molecular target: T2, 1-phosphatidylinositol 4,5-bisphosphate phosphodiesterase gamma-1 (Homo sapiens, UniProt P19174); experiment: Counterscreen for inhibitors of phospholipase C isozymes (PLC-B3): Fluorescence-based biochemical high throughput dose response assay to identify inhibitors of phospholipase C isozymes (PLC-gamma1).
T2 sequence (P19174 whole entry): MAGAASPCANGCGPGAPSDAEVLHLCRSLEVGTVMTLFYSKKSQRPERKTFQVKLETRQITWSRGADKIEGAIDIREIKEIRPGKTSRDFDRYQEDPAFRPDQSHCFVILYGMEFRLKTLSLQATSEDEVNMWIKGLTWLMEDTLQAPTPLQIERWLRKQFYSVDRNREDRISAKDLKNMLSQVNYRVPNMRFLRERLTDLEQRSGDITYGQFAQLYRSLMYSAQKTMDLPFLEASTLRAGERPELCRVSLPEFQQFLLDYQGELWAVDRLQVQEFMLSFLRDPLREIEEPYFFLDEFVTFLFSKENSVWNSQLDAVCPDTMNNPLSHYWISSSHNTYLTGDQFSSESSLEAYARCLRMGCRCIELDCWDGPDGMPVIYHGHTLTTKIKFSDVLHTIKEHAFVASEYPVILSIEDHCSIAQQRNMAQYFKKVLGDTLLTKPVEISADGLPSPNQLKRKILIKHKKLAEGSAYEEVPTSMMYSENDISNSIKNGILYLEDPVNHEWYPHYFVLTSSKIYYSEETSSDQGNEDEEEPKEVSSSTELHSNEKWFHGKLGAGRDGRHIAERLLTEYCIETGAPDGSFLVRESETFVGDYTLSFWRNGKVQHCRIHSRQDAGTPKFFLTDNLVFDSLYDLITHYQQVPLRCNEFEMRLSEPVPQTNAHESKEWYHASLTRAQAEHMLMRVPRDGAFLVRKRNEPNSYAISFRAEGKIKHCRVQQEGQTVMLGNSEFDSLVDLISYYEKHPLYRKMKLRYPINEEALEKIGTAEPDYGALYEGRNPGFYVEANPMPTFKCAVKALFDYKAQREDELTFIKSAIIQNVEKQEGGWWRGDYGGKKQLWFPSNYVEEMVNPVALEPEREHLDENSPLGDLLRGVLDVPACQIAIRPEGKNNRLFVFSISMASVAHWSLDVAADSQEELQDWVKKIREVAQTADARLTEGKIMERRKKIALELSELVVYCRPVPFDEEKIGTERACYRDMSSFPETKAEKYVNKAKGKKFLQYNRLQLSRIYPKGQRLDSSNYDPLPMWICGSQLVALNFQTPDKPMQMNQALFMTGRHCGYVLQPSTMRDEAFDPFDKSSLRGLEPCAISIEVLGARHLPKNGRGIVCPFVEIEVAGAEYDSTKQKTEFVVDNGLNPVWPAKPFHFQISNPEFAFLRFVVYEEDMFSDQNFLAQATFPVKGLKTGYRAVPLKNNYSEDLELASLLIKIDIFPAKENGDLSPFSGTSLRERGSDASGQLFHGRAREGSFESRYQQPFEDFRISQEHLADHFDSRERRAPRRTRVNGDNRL

[13] = molecular target: T3, 1-phosphatidylinositol 4,5-bisphosphate phosphodiesterase beta-3 (Homo sapiens, UniProt Q01970); experiment: Fluorescence-based biochemical high throughput dose response assay to identify inhibitors of phospholipase C isozymes (PLC-B3).
T3 sequence (Q01970 whole entry): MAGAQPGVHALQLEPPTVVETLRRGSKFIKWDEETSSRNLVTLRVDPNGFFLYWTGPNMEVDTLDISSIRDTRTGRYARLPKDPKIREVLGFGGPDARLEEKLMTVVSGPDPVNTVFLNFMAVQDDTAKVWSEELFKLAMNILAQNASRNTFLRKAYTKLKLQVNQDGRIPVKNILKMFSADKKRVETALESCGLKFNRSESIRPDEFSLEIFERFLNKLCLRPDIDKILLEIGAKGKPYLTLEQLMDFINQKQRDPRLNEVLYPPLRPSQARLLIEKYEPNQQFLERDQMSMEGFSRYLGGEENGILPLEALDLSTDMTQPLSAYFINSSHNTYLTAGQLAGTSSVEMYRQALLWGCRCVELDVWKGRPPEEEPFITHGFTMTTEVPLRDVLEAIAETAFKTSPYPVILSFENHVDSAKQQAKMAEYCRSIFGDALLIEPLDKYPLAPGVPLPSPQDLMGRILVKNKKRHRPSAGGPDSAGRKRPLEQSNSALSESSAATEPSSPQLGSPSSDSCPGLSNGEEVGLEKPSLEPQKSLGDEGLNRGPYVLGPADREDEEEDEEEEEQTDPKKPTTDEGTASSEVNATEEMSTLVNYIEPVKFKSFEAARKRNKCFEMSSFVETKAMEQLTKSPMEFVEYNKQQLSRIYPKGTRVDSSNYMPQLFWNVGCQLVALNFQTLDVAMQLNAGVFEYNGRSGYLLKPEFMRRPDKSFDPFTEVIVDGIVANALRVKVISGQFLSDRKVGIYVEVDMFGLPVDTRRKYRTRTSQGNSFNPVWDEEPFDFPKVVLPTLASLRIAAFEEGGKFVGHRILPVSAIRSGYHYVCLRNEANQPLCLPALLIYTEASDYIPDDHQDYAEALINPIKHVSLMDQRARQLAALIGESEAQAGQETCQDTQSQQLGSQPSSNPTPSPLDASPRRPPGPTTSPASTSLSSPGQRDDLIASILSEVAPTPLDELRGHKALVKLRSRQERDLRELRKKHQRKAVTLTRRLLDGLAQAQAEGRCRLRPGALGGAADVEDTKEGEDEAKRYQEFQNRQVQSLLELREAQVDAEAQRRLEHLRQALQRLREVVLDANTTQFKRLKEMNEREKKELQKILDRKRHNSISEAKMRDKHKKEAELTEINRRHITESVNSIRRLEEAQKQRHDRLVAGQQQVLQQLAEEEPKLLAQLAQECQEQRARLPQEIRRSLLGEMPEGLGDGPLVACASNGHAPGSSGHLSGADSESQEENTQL

[14] = molecular target: T4, COUP transcription factor 2 (Homo sapiens, UniProt P24468); experiment: Luminescence-based cell-based high throughput dose response assay to identify inhibitors of COUP-TFII (NR2F2).; type: functional;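 also: HEK293 cells transiently cotransfected with COUP-TFII expression vector and reporter; luciferase reporter luminescence driven by COUP-TFII from the pX2-168 reporter plasmid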
T4 sequence (P24468 whole entry): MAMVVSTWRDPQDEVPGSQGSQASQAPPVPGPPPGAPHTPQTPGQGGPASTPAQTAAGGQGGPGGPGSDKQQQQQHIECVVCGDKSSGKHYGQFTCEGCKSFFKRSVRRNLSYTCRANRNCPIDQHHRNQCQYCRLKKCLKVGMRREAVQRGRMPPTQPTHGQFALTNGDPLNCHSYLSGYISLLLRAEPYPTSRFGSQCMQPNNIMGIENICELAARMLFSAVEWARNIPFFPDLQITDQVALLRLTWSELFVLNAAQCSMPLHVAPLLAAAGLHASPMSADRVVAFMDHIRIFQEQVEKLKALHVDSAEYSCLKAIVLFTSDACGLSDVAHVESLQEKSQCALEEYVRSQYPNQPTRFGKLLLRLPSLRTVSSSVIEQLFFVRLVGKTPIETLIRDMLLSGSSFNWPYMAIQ

Cc1ccc(C(=O)N2CCN(S(=O)(=O)c3ccccc3)CC2)cc1
IC50 [1]: > 83.3 µM (inactive)
IC50 [2]: > 109 µM (inactive)

Cc1cccc(-c2cc3nc(C)cc(NCCCN(C)C)n3n2)c1
CC50 [3]: 64.2 µM (active)

CCCOc1ccc2cc(-c3ccccn3)c(=O)oc2c1
AC50 [4]: 1.48 µM (active)
AC50 [5]: 2 µM (active)
AC50 [6]: > 52 µM (inactive)
EC50 [7]: 9.71 µM (active)
EC50 [8]: 2.91 µM (active)
IC50 [9]: > 100 µM (inactive)
EC50 [10]: 2.83 µM (active)
AC50 [11]: 33.6 µM (active)

Cc1ccc(S(=O)(=O)Cc2nc(O)c3ccccc3n2)cc1
IC50 [12]: > 123 µM (inactive)
IC50 [13]: > 123 µM (inactive)

O=C(COC(=O)CSc1ccc2ccccc2c1)NCc1ccc2c(c1)OCO2
IC50 [1]: > 83.3 µM (inactive)
IC50 [2]: > 109 µM (inactive)

Cn1c2ccccc2c(=O)c2cc(C#CC3(O)CCCCC3)ccc21
IC50 [14]: 12 µM (inactive)

Cc1cc(NC(=O)c2ccccc2)ncc1NC(=O)c1cccs1
IC50 [12]: > 122 µM (inactive)
IC50 [13]: > 122 µM (inactive)
